In DBAASP:
≈ marks a conversion by molar mass, not a printed value.

How the values were obtained:
Assay in all cases: ≥ marks a high value that may be exact or a test limit, other limits are often not marked, values filed in µg/mL are converted to µM
[1] = tested on: Salmonella enterica subsp. enterica serovar Typhimurium ATCC 14028s
[2] = tested on: Escherichia coli DC2
[3] = tested on: Aeromonas salmonicida 97-4
[4] = tested on: Candida albicans C627
[5] = tested on: Escherichia coli UB1005
[6] = tested on: Pseudomonas aeruginosa Z61
[7] = tested on: Escherichia coli CGSC 4908
[8] = tested on: Pseudomonas aeruginosa K799
[9] = tested on: Aeromonas salmonicida 99-1
[10] = tested on: Salmonella enterica serovar typhimurium MS7953s
[11] = tested on: Staphylococcus epidermidis C621
[12] = tested on: Staphylococcus aureus C623
[13] = tested on: Salmonella enterica subsp. enterica serovar Typhimurium ATCC 14028
[14] = tested on: Staphylococcus epidermidis
[15] = tested on: Escherichia coli K12 MG1655
[16] = tested on: Escherichia coli UTI89
[17] = tested on: Klebsiella pneumoniae CCRC 10694
[18] = tested on: Escherichia coli JM109
[19] = tested on: Staphylococcus aureus CCRC 15211
[20] = tested on: Vibrio parahaemolyticus CCRC 10806
[21] = tested on: Lactobacillus delbrueckii subsp. bulgaricus
[22] = tested on: Staphylococcus xylosus
[23] = tested on: Pseudomonas aeruginosa
[24] = tested on: Salmonella typhimurium CCRC 12947
[25] = tested on: Enterococcus faecium
[26] = tested on: Salmonella enterica
[27] = tested on: Staphylococcus aureus CCRC 12652
[28] = tested on: Escherichia coli BL21
[29] = tested on: Citrobacter koseri
[30] = tested on: Bifidobacterium adolescentis
[31] = tested on: Acinetobacter baumannii ATCC 19606
[32] = tested on: Escherichia coli BW25113 ΔsbmA
[33] = tested on: Escherichia coli ATCC 25922
[34] = tested on: Escherichia coli BW25113
[35] = tested on: Klebsiella pneumoniae ATCC 700603
[36] = tested on: Staphylococcus aureus ATCC 25923
[37] = tested on: Pseudomonas aeruginosa ATCC 27853
[38] = tested on: Escherichia coli

CC[C@H](C)[C@H](NC(=O)[C@H](CCCCN)NC(=O)CNC(=O)[C@@H](NC(=O)[C@H](Cc1cnc[nH]1)NC(=O)[C@H](Cc1cnc[nH]1)NC(=O)[C@@H](NC(=O)CNC(=O)[C@H](Cc1cnc[nH]1)NC(=O)[C@H](Cc1ccccc1)NC(=O)[C@H](CC(C)C)NC(=O)[C@H](CC(C)C)NC(=O)[C@H](CCCNC(=N)N)NC(=O)[C@H](Cc1ccccc1)NC(=O)[C@@H](N)Cc1ccccc1)C(C)C)C(C)C)C(=O)N[C@@H](CCCCN)C(=O)N1CCC[C@H]1C(=O)N[C@@H](CCCNC(=N)N)C(=O)N[C@@H](C)C(C)=O [FFRLLFHGVHHVGKIKPRA]
MIC [1]: 28.3 µM (≈ 63.9 µg/mL)
MIC [2]: 14.2 µM (≈ 32 µg/mL)
MIC [3]: 14.2 µM (≈ 32 µg/mL)
MIC [4]: 28.3 µM (≈ 63.9 µg/mL)
MIC [5]: 14.2 µM (≈ 32 µg/mL)
MIC [6]: 3.54 µM (≈ 7.99 µg/mL)
MIC [7]: 14.2 µM (≈ 32 µg/mL)
MIC [8]: 14.2 µM (≈ 32 µg/mL)
MIC [9]: 28.3 µM (≈ 63.9 µg/mL)
MIC [10]: 7.08 µM (≈ 16 µg/mL)
MIC [11]: 14.2 µM (≈ 32 µg/mL)
MIC [12]: 28.3 µM (≈ 63.9 µg/mL)

CC(=O)[C@H](CC(C)C)NC(=O)[C@H](Cc1ccc(O)cc1)NC(=O)[C@H](Cc1cnc[nH]1)NC(=O)[C@H](CC(=O)O)NC(=O)[C@H](CC(C)C)NC(=O)[C@H](C)NC(=O)[C@H](CC(C)C)NC(=O)CNC(=O)CNC(=O)[C@@H](NC(=O)[C@@H](NC(=O)[C@H](CCCCN)NC(=O)CNC(=O)[C@@H](NC(=O)[C@H](CCCCN)NC(=O)[C@H](CCCCN)NC(=O)[C@H](C)NC(=O)[C@H](CCCCN)NC(=O)[C@H](CCCNC(=N)N)NC(=O)[C@H](Cc1ccccc1)NC(=O)[C@@H](NC(=O)[C@H](CO)NC(=O)[C@H](CCCCN)NC(=O)[C@H](Cc1c[nH]c2ccccc12)NC(=O)CN)C(C)C)C(C)C)[C@@H](C)O)C(C)C [GWKSVFRKAKKVGKTVGGLALDHYL]
MIC [1]: 11.6 µM (≈ 32 µg/mL)
MIC [2]: 1.45 µM (≈ 4 µg/mL)
MIC [3]: 2.9 µM (≈ 7.99 µg/mL)
MIC [4]: 11.6 µM (≈ 32 µg/mL)
MIC [5]: 5.8 µM (≈ 16 µg/mL)
MIC [6]: 1.45 µM (≈ 4 µg/mL)
MIC [7]: 1.45 µM (≈ 4 µg/mL)
MIC [8]: 11.6 µM (≈ 32 µg/mL)
MIC [9]: 2.9 µM (≈ 7.99 µg/mL)
MIC [10]: 1.45 µM (≈ 4 µg/mL)
MIC [11]: 23.2 µM (≈ 64 µg/mL)
MIC [12]: 23.2 µM (≈ 64 µg/mL)

CC[C@H](C)[C@H](NC(=O)[C@H](CCCCN)NC(=O)[C@H](CCC(N)=O)NC(=O)[C@H](Cc1c[nH]c2ccccc12)NC(=O)[C@@H](NC(=O)[C@H](CCCCN)NC(=O)[C@@H](N)CCCCN)[C@@H](C)CC)C(=O)N[C@@H](CCCN=C(N)N)C(=O)N[C@@H](CC(N)=O)C(=O)N[C@@H](Cc1ccccc1)C(=O)N[C@@H](Cc1ccccc1)C(=O)N[C@@H](CCC(N)=O)C(=O)N[C@@H](CCCCN)C(=O)N[C@@H](CC(C)C)C(=O)O [KKIWQKIRNFFQKL]
MIC [13]: > 50 µM
MIC [14]: ≥ 50 µM
MIC [15]: 12.5 µM (≈ 23.5 µg/mL)
MIC [16]: 12.5 µM (≈ 23.5 µg/mL)

CC[C@H](C)[C@H](NC(=O)[C@H](CC(N)=O)NC(=O)[C@H](CCCCN)NC(=O)[C@H](CC(C)C)NC(=O)[C@H](CCCCN)NC(=O)[C@@H](N)CC(C)C)C(=O)N[C@H](C(=O)N[C@@H](CO)C(=O)N[C@@H](Cc1c[nH]c2ccccc12)C(=O)N[C@@H](C)C(=O)N[C@@H](CCCCN)C(=O)N[C@@H](CCCCN)C(=O)N[C@H](C(=O)N[C@@H](CC(C)C)C(N)=O)C(C)C)C(C)C [LKLKNIVSWAKKVL]
MIC [17]: ≥ 39 µM
MIC [18]: 1.22 µM (≈ 2 µg/mL)
MIC [19]: 19.5 µM (≈ 32 µg/mL)
MIC [20]: 9.76 µM (≈ 16 µg/mL)
MIC [21]: ≥ 78 µM
MIC [22]: 0.61 µM (≈ 0.999 µg/mL)
MIC [23]: 39 µM (≈ 64 µg/mL)
MIC [24]: 19.5 µM (≈ 32 µg/mL)
MIC [25]: ≥ 78 µM
MIC [26]: 19.5 µM (≈ 32 µg/mL)
MIC [27]: 13.8 µM (≈ 22.6 µg/mL)
MIC [28]: 4.88 µM (≈ 8 µg/mL)
MIC [29]: 2.44 µM (≈ 4 µg/mL)
MIC [30]: ≥ 78 µM

CC[C@H](C)[C@H](NC(=O)[C@H](CO)NC(=O)[C@H](CCCCN)NC(=O)[C@H](CC(C)C)NC(=O)[C@H](CCCCN)NC(=O)[C@@H](N)CC(C)C)C(=O)N[C@H](C(=O)N[C@@H](CO)C(=O)N[C@@H](Cc1ccc(O)cc1)C(=O)N[C@@H](C)C(=O)N[C@@H](CCCCN)C(=O)N[C@@H](CCCCN)C(=O)N[C@H](C(=O)N[C@@H](CC(C)C)C(N)=O)C(C)C)C(C)C [LKLKSIVSYAKKVL]
MIC [17]: ≥ 80.5 µM
MIC [18]: 1.26 µM (≈ 2 µg/mL)
MIC [19]: ≥ 80.5 µM
MIC [20]: ≥ 40.3 µM
MIC [21]: ≥ 80.5 µM
MIC [22]: 0.629 µM (≈ 0.999 µg/mL)
MIC [23]: 80.5 µM (≈ 128 µg/mL)
MIC [24]: ≥ 80.5 µM
MIC [25]: ≥ 80.5 µM
MIC [26]: ≥ 80.5 µM
MIC [27]: ≥ 80.5 µM
MIC [28]: 10.1 µM (≈ 16 µg/mL)
MIC [29]: 5.03 µM (≈ 8 µg/mL)
MIC [30]: ≥ 80.5 µM

CC[C@H](C)[C@H](NC(=O)[C@@H]1CCCN1C(=O)[C@@H]1CCCN1C(=O)[C@H](CCCN=C(N)N)NC(=O)[C@H](Cc1ccccc1)NC(=O)[C@@H]1CCCN1C(=O)[C@@H]1CCCN1C(=O)[C@H](Cc1ccc(O)cc1)NC(=O)[C@H](Cc1ccccc1)NC(=O)[C@@H]1CCCN1C(=O)[C@@H]1CCCN1C(=O)[C@H](CCCN=C(N)N)NC(=O)[C@@H](NC(=O)[C@@H]1CCCN1C(=O)[C@@H]1CCCN1C(=O)[C@H](CCCN=C(N)N)NC(=O)[C@H](CCCN=C(N)N)NC(=O)[C@@H](NC(=O)[C@@H]1CCCN1C(=O)[C@@H]1CCCN1C(=O)[C@@H](N)CCCN=C(N)N)[C@@H](C)CC)[C@@H](C)CC)C(=O)N[C@@H](CCCN=C(N)N)C(=O)N1CCC[C@H]1C(=O)O [RPPIRRPPIRPPFYPPFRPPIRP]
MIC [31]: 8 µM (≈ 22.6 µg/mL)
MIC [13]: > 64 µM
MIC [32]: ≥ 64 µM
MIC [33]: 8 µM (≈ 22.6 µg/mL)
MIC [34]: 4 µM (≈ 11.3 µg/mL)
MIC [35]: > 64 µM
MIC [36]: > 64 µM
MIC [37]: > 64 µM

CC[C@H](C)[C@H](NC(=O)[C@@H]1CCCN1C(=O)[C@H](CCCN=C(N)N)NC(=O)[C@H](CCCN=C(N)N)NC(=O)[C@H](Cc1c[nH]c2ccccc12)NC(=O)[C@@H](N)CCCN=C(N)N)C(=O)N[C@@H](CCCN=C(N)N)C(=O)N[C@@H](CCCN=C(N)N)C(=O)N[C@@H](CCCN=C(N)N)C(=O)N1CCC[C@H]1C(=O)N[C@H](C(=O)N[C@@H](CCCN=C(N)N)C(=O)N1CCC[C@H]1C(=O)N1CCC[C@H]1C(=O)N[C@@H](Cc1ccccc1)C(=O)N[C@@H](Cc1c[nH]c2ccccc12)C(=O)N[C@@H](CCCN=C(N)N)C(=O)O)[C@@H](C)CC [RWRRPIRRRPIRPPFWR]
MIC [38]: 1.41 µM (≈ 3.4 µg/mL)
MIC [31]: 8 µM (≈ 19.2 µg/mL)
MIC [32]: 4 µM (≈ 9.61 µg/mL)
MIC [34]: 4 µM (≈ 9.61 µg/mL)
MIC [35]: 4 µM (≈ 9.61 µg/mL)
MIC [36]: 64 µM (≈ 154 µg/mL)
MIC [37]: 32 µM (≈ 76.9 µg/mL)
